Assays:
S. aureus ATCC 29213 = experiment: Broth microdilution MIC assay; format: cell-based; details: Staphylococcus aureus, ATCC29213; broth microdilution, 16-20 hours at 37° C.; read-out: S. aureus 29213 MIC
Method: (§1) To determine the ability of test compounds to potentiate the inhibition of the growth of bacterial strains, classic cell based broth microdilution MIC assays were employed. MIC assays are performed according to CLSI methods except where otherwise noted (CLSI, 2011 and CLSI, 2009). The reference strain S. aureus ATCC 29213 and the hyper-permeable E. coli 901C were used to determine the ability of the PBP compounds to inhibit bacterial growth. Briefly, cryo-preserved bacterial cultures of clinical strains are streaked for isolation on appropriate agar medium, in this case Mueller Hinton II agar. Following incubation to allow formation of colonies these plates are sealed with parafilm and stored refrigerated for up to two weeks. For preparation of assay inocula and to ensure low variability, at least 5 colonies are picked from the agar plates with an inoculating loop and aseptically transferred to a culture tube containing 3 mL of Mueller-Hinton Broth (supplemented with divalent cations to required levels based on Manufacturers' certification). The broth culture is grown for 3-5 hours at 37° C. with shaking at 200 rpm. Meanwhile, 2-fold serial dilutions of test compounds are conducted in a 96 well plate with a final volume of 75 μL per well at 2-fold the final desired concentration. After the dilution plates are set up the growing cultures are then diluted in a cuvette containing MH II broth and the optical density is measured at 600 nm. Inocula are diluted such that 75 μL of this culture in Mueller-Hinton Broth results in a starting bacterial concentration of 5×10^5 CFU/mL when added to the dilution plates. The plates are incubated 16-20 hours at 37° C. The MIC is read visually as the lowest concentration well with no bacterial growth.

[1] = test system: hyper-permeable E. coli 901C; experiment: Broth microdilution MIC assay; format: cell-based; details: Escherichia coli, read-out: E. coli 901C MIC
Method: as §1

[2] = test system: E. coli DH5α/pLBII-CTX-M15; experiment: Broth microdilution MIC assay, engineered strain producing CTX-M15; format: cell-based, Escherichia coli; details: Escherichia coli, read-out: E. coli DH5α/pLBII-CTX-M15 Microbiological Activity (MIC)
Method: as §1
To determine if test compounds were affected by CTX-M15, the most abundant extended spectrum β-lactamase in clinical settings worldwide, the inhibition of the growth of an engineered strain of Escherichia coli harboring CTX-M15 was tested. This strain was constructed by cloning the gene encoding CTX-M15 into the NdeI and BamHI restriction endonuclease sites of plasmid pLBII, placing the gene(s) under the control of the Lac promoter. The constructed expression plasmid for CTX-M15 was used to transform competent E. coli DH5a cells to make the engineered strain, including an empty pLBII vector control strain. The classic cell based broth microdilution MIC assay was employed as described above with the addition of control antibiotics, known to be degraded by β-lactamases (Ceftazidime, piperacillin and piperacillin+tazobactam).

CCN1CCN(C(=O)N[C@@H](C(=O)N[C@H]2Cc3cccc(C(=O)O)c3OB2O)C(O)c2ccccc2)C(=O)C1=O (single isomer, unassigned) [Example 80] was tested, and the MIC (S. aureus ATCC 29213) was 64 to 128 µg/mL and the MIC [1] was < 64 µg/mL.
For CCN1CCN(C(=O)N[C@H](C(=O)N[C@H]2Cc3cccc(C(=O)O)c3OB2O)C(O)c2ccccc2)C(=O)C1=O (single isomer, unassigned) [Example 81], the MIC (S. aureus ATCC 29213) was > 128 µg/mL and the MIC [1] was > 128 µg/mL.
Nc1nc(C(NCC(=O)O)C(=O)N[C@H]2Cc3cccc(C(=O)O)c3OB2O)cs1 (stereo partly drawn) [Example 10, (3R)-3-(2-(2-aminothiazol-4-yl)-2-((carboxymethyl)amino)acetamido)-2-hydroxy-3,4-dihydro-2H-benzo[e][1,2]oxaborinine-8-carboxylic acid] was tested, and the MIC (S. aureus ATCC 29213) was > 128 µg/mL.
CS(=O)(=O)N1CCC(C(=O)NC(C(=O)N[C@H]2Cc3cccc(C(=O)O)c3OB2O)c2csc(N)n2)CC1 (stereo partly drawn) [Example 70, (3R)-3-(2-(2-aminothiazol-4-yl)-2-(1-(methylsulfonyl)piperidine-4-carboxamido)acetamido)-2-hydroxy-3,4-dihydro-2H-benzo[e][1,2]oxaborinine-8-carboxylic acid] was tested, and the MIC (S. aureus ATCC 29213) was > 128 µg/mL and the MIC [1] was < 64 µg/mL.
For CC(=O)N1CCN(C(=O)NC(C(=O)N[C@H]2Cc3cccc(C(=O)O)c3OB2O)c2csc(N)n2)C1=O (stereo partly drawn) [Example 71, (3R)-3-(2-(3-acetyl-2-oxoimidazolidine-1-carboxamido)-2-(2-aminothiazol-4-yl)acetamido)-2-hydroxy-3,4-dihydro-2H-benzo[e][1,2]oxaborinine-8-carboxylic acid], the MIC (S. aureus ATCC 29213) was 64 to 128 µg/mL and the MIC [1] was < 64 µg/mL.
For NCC1CCN(C(=O)NC(C(=O)N[C@H]2Cc3cccc(C(=O)O)c3OB2O)c2csc(N)n2)CC1 (stereo partly drawn) [Example 75, (3R)-3-(2-(4-(aminomethyl)piperidine-1-carboxamido)-2-(2-aminothiazol-4-yl)acetamido)-2-hydroxy-3,4-dihydro-2H-benzo[e][1,2]oxaborinine-8-carboxylic acid], the MIC (S. aureus ATCC 29213) was > 128 µg/mL and the MIC [1] was < 64 µg/mL.
With NCC1CCCN(C(=O)NC(C(=O)N[C@H]2Cc3cccc(C(=O)O)c3OB2O)c2csc(N)n2)C1 (stereo partly drawn) [Example 76, (3R)-3-(2-(3-(aminomethyl)piperidine-1-carboxamido)-2-(2-aminothiazol-4-yl)acetamido)-2-hydroxy-3,4-dihydro-2H-benzo[e][1,2]oxaborinine-8-carboxylic acid] the MIC (S. aureus ATCC 29213) was > 128 µg/mL and the MIC [1] was 64 to 128 µg/mL.
With CCN1CCN(C(=O)NC(C(=O)N[C@H]2Cc3cccc(C(=O)O)c3OB2O)C(C)c2ccccc2)C(=O)C1=O (stereo partly drawn) [Example 84, (3R)-3-(2-(4-ethyl-2,3-dioxopiperazine-1-carboxamido)-3-phenylbutanamido)-2-hydroxy-3,4-dihydro-2H-benzo[e][1,2]oxaborinine-8-carboxylic acid] the MIC (S. aureus ATCC 29213) was 64 to 128 µg/mL, the MIC [1] was < 64 µg/mL and the MIC [2] was 128 to 256 µg/mL.
In the case of Nc1nc(C(NC(=O)NCCC(=O)O)C(=O)N[C@H]2Cc3cccc(C(=O)O)c3OB2O)cs1 (stereo partly drawn) [Example 87, (3R)-3-(2-(2-aminothiazol-4-yl)-2-(3-(2-carboxyethyl)ureido)acetamido)-2-hydroxy-3,4-dihydro-2H-benzo[e][1,2]oxaborinine-8-carboxylic acid], the MIC (S. aureus ATCC 29213) is reported as > 128 µg/mL, the MIC [1] is reported as 64 to 128 µg/mL and the MIC [2] is reported as 128 to 256 µg/mL.
COC(=O)CCNC(=O)NC(C(=O)N[C@H]1Cc2cccc(C(=O)O)c2OB1O)c1csc(N)n1 (stereo partly drawn) [Example 88, (3R)-3-(2-(2-aminothiazol-4-yl)-2-(3-(3-methoxy-3-oxopropyl)ureido)acetamido)-2-hydroxy-3,4-dihydro-2H-benzo[e][1,2]oxaborinine-8-carboxylic acid] was tested, and the MIC (S. aureus ATCC 29213) was > 128 µg/mL, the MIC [1] was < 64 µg/mL and the MIC [2] was 128 to 256 µg/mL.
In the case of Nc1nc(C(NC(=O)CCB(O)O)C(=O)N[C@H]2Cc3cccc(C(=O)O)c3OB2O)cs1 (stereo partly drawn) [Example 89, (3R)-3-(2-(2-aminothiazol-4-yl)-2-(3-boronopropanamido)acetamido)-2-hydroxy-3,4-dihydro-2H-benzo[e][1,2]oxaborinine-8-carboxylic acid], the MIC (S. aureus ATCC 29213) is reported as > 128 µg/mL, the MIC [1] is reported as > 128 µg/mL and the MIC [2] is reported as 128 to 256 µg/mL.

From US11332485B2, “Penicillin-binding protein inhibitors” (priority 2017, dated 2022)
